Measurements reported in publication PMC9973354 (mBio, 2022).
Read-outs that look alike come from different tables or passages of the source. Starred links: 1 amine or outer side, 2 acyl side, 3 side chain; linkers in the order of their positions; H or OH if unused. Positions of bridges follow the written chain, without caps; N, C: chain ends. Non-standard residues stand in square brackets, D forms with d. Residues, ends and D or L forms follow the SMILES beside them. ξ: configuration not given here. X1 = O=C([C@@H]1CCN=C2C(N[*:1])=Cc3cc(O)c(O)cc3N21)[*:2]; ξOrn(N(OH)CHO) = NC(CCCN(O)C=O)C(=O)O; Suc = O=C(CCC(=O)[*:2])[*:1]; ξK = NCCCCC(N)C(=O)O; ξS = NC(CO)C(=O)O

Columns and labels:
FpvB R648C = biological target: T1, FpvB R648C (Pseudomonas aeruginosa, UniProt A0A0H2ZFZ5, R648C); assay: Fluorescence recovery assay (siderophore uptake by FpvB); assay type: cell-based
T1 sequence (A0A0H2ZFZ5 23-802 R648C): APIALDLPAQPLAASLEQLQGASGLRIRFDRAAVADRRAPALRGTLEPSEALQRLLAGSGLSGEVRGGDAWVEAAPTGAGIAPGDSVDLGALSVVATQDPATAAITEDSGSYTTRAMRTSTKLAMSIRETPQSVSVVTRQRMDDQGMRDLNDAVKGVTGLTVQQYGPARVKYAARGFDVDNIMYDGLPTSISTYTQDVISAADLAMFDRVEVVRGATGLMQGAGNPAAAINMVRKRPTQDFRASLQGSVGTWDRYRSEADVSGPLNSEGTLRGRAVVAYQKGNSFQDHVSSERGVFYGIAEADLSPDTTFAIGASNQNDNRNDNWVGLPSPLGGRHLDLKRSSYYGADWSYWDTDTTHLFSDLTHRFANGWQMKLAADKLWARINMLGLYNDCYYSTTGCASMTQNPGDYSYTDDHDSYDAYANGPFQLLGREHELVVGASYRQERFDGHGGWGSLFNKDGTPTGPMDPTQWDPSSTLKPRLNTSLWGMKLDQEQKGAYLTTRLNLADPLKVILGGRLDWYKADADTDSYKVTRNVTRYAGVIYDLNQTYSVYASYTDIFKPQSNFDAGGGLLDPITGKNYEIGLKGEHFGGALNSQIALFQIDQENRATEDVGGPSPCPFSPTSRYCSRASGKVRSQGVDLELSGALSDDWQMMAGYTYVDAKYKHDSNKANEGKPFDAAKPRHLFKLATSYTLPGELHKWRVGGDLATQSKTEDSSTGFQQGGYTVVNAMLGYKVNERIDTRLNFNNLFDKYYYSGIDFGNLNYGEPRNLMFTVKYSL
Description: Cells were equilibrated for 5 min prior to introduction of the siderophores. Fluorescence was recorded every min for 1 h. Carbonyl cyanide m-chlorophenylhydrazone (CCCP) was used as a control to inhibit fluorescence recovery through dissipation of the proton motive force (PMF) ([2], [3]), which is required for uptake.
Cells were cultured overnight in LB with carbenicillin (200 μg/mL) at 37°C with shaking at 200 rpm. Cells were subcultured (1:200 dilution) in 10:90 plus 2% arabinose for 4 h without carbenicillin at 37°C with shaking at 200 rpm. Cells were harvested by centrifugation for 5 min and 6,000 × g and resuspended in sterile 1× phosphate-buffered saline (PBS) (pH 7.4); 1× PBS was made from a 10× stock (80 g NaCl, 2 g KCl, 26.8 g Na2 HPO4-7H2O, 2.4 g KH2PO4 in 1 L of deionized H2O) with 10 μM Alexa Fluor 594 C5 maleimide for microscopy or fluorescein-5-maleimide for fluorescence quenching and recovery assays and incubated in the dark at […] for 30 min on a shaking incubator at 37°C (200 rpm). Excess dye was quenched with 1 mM dithiothreitol (DTT) (Sigma) to stop the reaction. Cells were washed 3× with PBS. For fluorescence recovery assays, cells were incubated with 1× PBS plus 0.4% glucose at 37°C with shaking at 200 rpm. […] Cells were spun down and washed 3× with 1× PBS and resuspended in 1× PBS for quenching assays and 1× PBS plus 0.4% glucose for fluorescence recovery assays.
For fluorescence quenching and recovery assays, cells were diluted to an OD600 of 0.1 for both types of assays, and 148 μL was added into wells of a 96-well black plate (Corning). Fluorescence was recorded for 5 min at 1-min intervals at 37°C (BioTek Neo; excitation, 494 nm; emission, 520 nm). […] Fluorescence was recorded immediately for quenching assays and for 1 h at 1-min intervals for fluorescence recovery assays. Background fluorescence was subtracted from all fluorescence readings and 1-F/F0 was used to calculate the degree of quenching, where F0 is the initial fluorescence. Kd was calculated using GraphPad Prism using a one-site specific binding model or a two-site model. […]

PA14 ΔfpvB mutant = assay: Growth curves with DSX and siderophores, ΔfpvB; assay type: cell-based, Pseudomonas aeruginosa; settings: 20 h
Description: Supplementary file : FIG S1 (A) FpvB is expressed in WT PA14 and the ΔfpvA mutant grown in 10:90. PilF was used as a loading control for outer membrane proteins. (B) FpvA is expressed from WT PA14 grown in 10:90. […] PilF was used as a loading control for outer membrane proteins. (C) Growth curves of PA14 and mutants with DSX and different siderophores in 10:90. PA14, ΔfpvA, ΔfpvB, ΔfpvA ΔfpvB, and ΔpvdA ΔpchA strain growth. Blue indicates control, purple indicates treatment with 64 μg/mL DSX, yellow indicates treatment with 10 μg/mL pyoverdine (PA14), and red indicates treatment with 64 μg/mL DSX and 10 μg/mL pyoverdine (PA14). (D) ΔfpvA, ΔfpvA ΔfpvB, and ΔpvdA ΔpchA strain growth. Blue indicates control, purple indicates treatment with 64 μg/mL DSX, grey indicates treatment with 10 μg/mL ferrichrome, and red indicates treatment with 64 μg/mL DSX and 10 μg/mL ferrichrome. (E) ΔfpvA, ΔfpvA ΔfpvB, and ΔpvdA ΔpchA strain growth. […] Download FIG S1, EPS file, 8.5 MB.
Another explanation for the susceptibility of the ΔfpvA mutant to DSX is that the mutant produces less pyoverdine compared to WT cells due to loss of the signaling cascade that controls siderophore production in response to its binding to FpvA ([25]). To differentiate whether the fpvA mutant was susceptible to DSX because of reduced pyoverdine production or because FpvB was a poor pyoverdine transporter, we treated the WT, ΔfpvA, ΔfpvB, and ΔfpvA ΔfpvB strains with DSX (64 μg/mL) without and with exogenous pyoverdine (10 μg/mL) for 20 h (Fig. 1; see also Fig. S1C). Growth of the ΔfpvA mutant should be restored if there are functional pyoverdine transporters. […] The growth of the ΔfpvA ΔfpvB mutant was inhibited by DSX and pyoverdine, confirming previously published results ([18]).

SMILES	fluorescence recovery (FpvB R648C)	growth with siderophore in the presence of DSX (PA14 ΔfpvB mutant; 64 μg/mL DSX + 10 μg/mL pyoverdine)	growth versus control (PA14 ΔfpvB mutant; DSX 64 μg/mL or pyoverdine 10 μg/mL alone, 10:90)	fluorescence recovery (FpvB R648C; siderophore at 1/2 Kd (1/2 Kd2 for ferrioxamine B), recorded for 1 h)
CC(=O)N(O)CCCCCNC(=O)CCC(=O)N(O)CCCCCNC(=O)CCC(=O)N(O)CCCCCN [ferrioxamine B]	~ 50 % of the control			
NCCCCC(NC(=O)C(CO)NC(=O)[C@@H]1CCN=C2C(NC(=O)CCC(=O)O)=Cc3cc(O)c(O)cc3N21)C(=O)NCC(=O)NC(CCCN(O)C=O)C(=O)NC1CCCCNC(=O)C(CO)NC(=O)C(CCCN(O)C=O)NC1=O (stereo partly shown) [pyoverdine] (Suc-[X1][ξS][ξK]G[ξOrn(N(OH)CHO)][ξK][ξOrn(N(OH)CHO)][ξS]; lactam 6-C)		increased growth	increased growth	no recovery
